Measurements as given in PubChem BioAssay AID248 (DTP/NCI, 2004).
Toxic doses and inconclusive results are not listed.

Tested on: L1210 leukemia ip in BDF1 mice, survival T/C
Assay: NCI In Vivo Anticancer Drug Screen. Data for tumor model L1210 Leukemia (intraperitoneal) in B6D2F1 (BDF1) mice
Conditions: higher = longer survival
Method in brief: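 Mice bearing the transplanted tumor received compound or vehicle. Survival of the treated group was divided by that of the vehicle-treated control group to give the ratio.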

[1] = endpoint: mean survival time, dose: 100.0 mg/kg/injection, schedule: Q01DX009 (ip), vehicle: Klucel (hydroxypropylcellulose) (HPC)
[2] = endpoint: mean survival time, dose: 200.0 mg/kg/injection, schedule: Q01DX009 (ip), vehicle: Klucel (hydroxypropylcellulose) (HPC)
[3] = endpoint: mean survival time, dose: 400.0 mg/kg/injection, schedule: Q01DX009 (ip), vehicle: Klucel (hydroxypropylcellulose) (HPC)
[4] = endpoint: mean survival time, dose: 100.0 mg/kg/injection, schedule: Q01DX001 (ip), vehicle: saline
[5] = endpoint: mean survival time, dose: 200.0 mg/kg/injection, schedule: Q01DX001 (ip), vehicle: saline
[6] = endpoint: mean survival time, dose: 400.0 mg/kg/injection, schedule: Q01DX001 (ip), vehicle: saline
[7] = endpoint: mean survival time, dose: 50.0 mg/kg/injection, schedule: Q01DX009 (ip), vehicle: saline with Tween-80
[8] = endpoint: mean survival time, dose: 100.0 mg/kg/injection, schedule: Q01DX009 (ip), vehicle: saline with Tween-80
[9] = endpoint: mean survival time, dose: 200.0 mg/kg/injection, schedule: Q01DX009 (ip), vehicle: saline with Tween-80

Cc1cc(NCCCCCCNc2cc(C)nc3ccc(N)cc23)c2cc(N)ccc2n1
T/C (endpoint: mean survival time, dose: 4.7 mg/kg/injection, schedule: Q01DX009 (ip), vehicle: saline with Tween-80): 117 % of control
T/C (endpoint: mean survival time, dose: 16.5 mg/kg/injection, schedule: Q01DX009 (ip), vehicle: saline): 118 % of control
T/C (endpoint: mean survival time, dose: 18.75 mg/kg/injection, schedule: Q01DX009 (ip), vehicle: saline with Tween-80): 152 % of control
T/C (endpoint: mean survival time, dose: 37.5 mg/kg/injection, schedule: Q01DX009 (ip), vehicle: saline with Tween-80): 176 % of control
T/C (endpoint: mean survival time, dose: 37.5 mg/kg/injection, schedule: Q01DX009 (ip), vehicle: saline): 164 % of control
T/C (endpoint: mean survival time, dose: 75.0 mg/kg/injection, schedule: Q01DX009 (ip), vehicle: acetone): 160 % of control
T/C (endpoint: mean survival time, dose: 75.0 mg/kg/injection, schedule: Q01DX009 (ip), vehicle: saline with Tween-80): 150 % of control
T/C (endpoint: mean survival time, dose: 75.0 mg/kg/injection, schedule: Q01DX009 (ip), vehicle: saline): 182 % of control
T/C (endpoint: mean survival time, dose: 150.0 mg/kg/injection, schedule: Q01DX009 (ip), vehicle: acetone): 161 % of control
T/C (endpoint: mean survival time, dose: 150.0 mg/kg/injection, schedule: Q01DX009 (ip), vehicle: saline with Tween-80): 102 % of control
T/C (endpoint: mean survival time, dose: 180.0 mg/kg/injection, schedule: Q04DX003 (ip), vehicle: Klucel (hydroxypropylcellulose) (HPC)): 160 % of control
T/C (endpoint: mean survival time, dose: 180.0 mg/kg/injection, schedule: Q04DX003 (ip), vehicle: saline with Tween-80): 152 % of control
T/C (endpoint: mean survival time, dose: 266.0 mg/kg/injection, schedule: Q04DX003 (ip), vehicle: saline with Tween-80): 111 % of control
T/C (endpoint: mean survival time, dose: 300.0 mg/kg/injection, schedule: Q01DX009 (ip), vehicle: saline with Tween-80): 94 % of control
T/C (endpoint: mean survival time, dose: 400.0 mg/kg/injection, schedule: Q04DX003 (ip), vehicle: Klucel (hydroxypropylcellulose) (HPC)): 172 % of control
T/C (endpoint: mean survival time, dose: 600.0 mg/kg/injection, schedule: Q04DX003 (ip), vehicle: Klucel (hydroxypropylcellulose) (HPC)): 197 % of control
T/C (endpoint: mean survival time, dose: 600.0 mg/kg/injection, schedule: Q04DX003 (ip), vehicle: saline with Tween-80): 198 % of control
T/C (endpoint: median survival time, dose: 4.0 mg/kg/injection, schedule: Q01DX001 (ip), vehicle: lactic acid): 101 % of control
T/C (endpoint: median survival time, dose: 8.0 mg/kg/injection, schedule: Q01DX001 (ip), vehicle: lactic acid): 100 % of control
T/C (endpoint: median survival time, dose: 16.0 mg/kg/injection, schedule: Q01DX001 (ip), vehicle: lactic acid): 103 % of control
T/C (endpoint: median survival time, dose: 16.0 mg/kg/injection, schedule: Q01DX001 (oral), vehicle: citric acid): 97 % of control
T/C (endpoint: median survival time, dose: 16.0 mg/kg/injection, schedule: Q01DX001 (oral), vehicle: lactic acid): 100 % of control
T/C (endpoint: median survival time, dose: 32.0 mg/kg/injection, schedule: Q01DX001 (ip), vehicle: lactic acid): 111 % of control
T/C (endpoint: median survival time, dose: 32.0 mg/kg/injection, schedule: Q01DX001 (oral), vehicle: citric acid): 103 % of control
T/C (endpoint: median survival time, dose: 32.0 mg/kg/injection, schedule: Q01DX001 (oral), vehicle: lactic acid): 100 % of control
T/C (endpoint: median survival time, dose: 64.0 mg/kg/injection, schedule: Q01DX001 (ip), vehicle: Klucel (hydroxypropylcellulose) (HPC)): 120 % of control
T/C (endpoint: median survival time, dose: 64.0 mg/kg/injection, schedule: Q01DX001 (oral), vehicle: citric acid): 102 % of control
T/C (endpoint: median survival time, dose: 64.0 mg/kg/injection, schedule: Q01DX001 (oral), vehicle: lactic acid): 103 % of control
T/C (endpoint: median survival time, dose: 128.0 mg/kg/injection, schedule: Q01DX001 (ip), vehicle: Klucel (hydroxypropylcellulose) (HPC)): 153 % of control
T/C (endpoint: median survival time, dose: 128.0 mg/kg/injection, schedule: Q01DX001 (oral), vehicle: citric acid): 97 % of control
T/C (endpoint: median survival time, dose: 128.0 mg/kg/injection, schedule: Q01DX001 (oral), vehicle: lactic acid): 95 % of control
T/C (endpoint: median survival time, dose: 256.0 mg/kg/injection, schedule: Q01DX001 (ip), vehicle: Klucel (hydroxypropylcellulose) (HPC)): 175 % of control
T/C (endpoint: median survival time, dose: 256.0 mg/kg/injection, schedule: Q01DX001 (oral), vehicle: citric acid): 87 % of control
T/C (endpoint: median survival time, dose: 256.0 mg/kg/injection, schedule: Q01DX001 (oral), vehicle: lactic acid): 94 % of control
T/C (endpoint: median survival time, dose: 512.0 mg/kg/injection, schedule: Q01DX001 (ip), vehicle: Klucel (hydroxypropylcellulose) (HPC)): 180 % of control

CCCCCCCCOc1ccc(C=Nc2ccc(C(=O)OCC)cc2)cc1
T/C [1]: 87 % of control
T/C [2]: 92 % of control
T/C [3]: 94 % of control

CC(=O)Oc1cc(C)c2c(c1C)C1OC(=O)C(C)C1CC2 (centres undefined)
T/C (endpoint: mean survival time, dose: 100.0 mg/kg/injection, schedule: Q01DX001 (ip), vehicle: other): 98 % of control
T/C (endpoint: mean survival time, dose: 200.0 mg/kg/injection, schedule: Q01DX001 (ip), vehicle: other): 98 % of control
T/C (endpoint: mean survival time, dose: 400.0 mg/kg/injection, schedule: Q01DX001 (ip), vehicle: other): 97 % of control

Cc1cc(NCC(O)C(O)C(O)CO)c(C(=O)NN)cc1C (centres undefined)
T/C [4]: 101 % of control
T/C [5]: 96 % of control
T/C [6]: 95 % of control

Cc1ccc(S(=O)(=O)N2c3ccccc3-c3ccccc3C(=O)C2Br)cc1 (centres undefined)
T/C (endpoint: mean survival time, dose: 100.0 mg/kg/injection, schedule: Q01DX001 (ip), vehicle: carboxymethylcellulose (CMC)): 105 % of control
T/C (endpoint: mean survival time, dose: 200.0 mg/kg/injection, schedule: Q01DX001 (ip), vehicle: carboxymethylcellulose (CMC)): 105 % of control
T/C (endpoint: mean survival time, dose: 400.0 mg/kg/injection, schedule: Q01DX001 (ip), vehicle: carboxymethylcellulose (CMC)): 124 % of control

CCc1occ(C(=O)OC)c1C1SCCS1
T/C [4]: 92 % of control
T/C [5]: 97 % of control
T/C [6]: 91 % of control

Cc1ccc(C(=O)C2CC=CCC2C(=O)c2ccc(C)cc2)cc1 (centres undefined)
T/C (endpoint: mean survival time, dose: 50.0 mg/kg/injection, schedule: Q01DX009 (ip), vehicle: Klucel (hydroxypropylcellulose) (HPC)): 97 % of control
T/C [1]: 91 % of control
T/C [2]: 92 % of control
T/C [3]: 90 % of control

C=CCNC(=O)SCCC(=O)O
T/C [4]: 93 % of control
T/C [5]: 100 % of control
T/C [6]: 102 % of control

COc1ccc(OC)c(/C=N/NC(=O)C[N+](C)(C)C)c1
T/C [7]: 88 % of control
T/C [8]: 86 % of control

CCCCCC(C[N+](C)(C)C)C(O)/C=C\c1ccccc1 (centres undefined)
T/C (endpoint: mean survival time, dose: 2.5 mg/kg/injection, schedule: Q01DX009 (ip), vehicle: saline): 97 % of control
T/C (endpoint: mean survival time, dose: 5.0 mg/kg/injection, schedule: Q01DX009 (ip), vehicle: saline): 97 % of control
T/C (endpoint: mean survival time, dose: 5.0 mg/kg/injection, schedule: Q04DX003 (ip), vehicle: saline): 103 % of control
T/C (endpoint: mean survival time, dose: 10.0 mg/kg/injection, schedule: Q01DX009 (ip), vehicle: saline): 99 % of control
T/C (endpoint: mean survival time, dose: 10.0 mg/kg/injection, schedule: Q04DX003 (ip), vehicle: saline): 98 % of control

CCOC(=O)C1(C(=O)OCC)C(C)CC(OCC)N1C(=O)c1cc2c(cc1[N+](=O)[O-])OCO2 (centres undefined)
T/C (endpoint: mean survival time, dose: 25.0 mg/kg/injection, schedule: Q04DX003 (ip), vehicle: Klucel (hydroxypropylcellulose) (HPC)): 92 % of control
T/C (endpoint: mean survival time, dose: 50.0 mg/kg/injection, schedule: Q04DX003 (ip), vehicle: Klucel (hydroxypropylcellulose) (HPC)): 89 % of control
T/C (endpoint: mean survival time, dose: 100.0 mg/kg/injection, schedule: Q04DX003 (ip), vehicle: Klucel (hydroxypropylcellulose) (HPC)): 94 % of control

NC(N)=N/N=C/c1nccc2ccccc12
T/C (endpoint: mean survival time, dose: 50.0 mg/kg/injection, schedule: Q01DX001 (ip), vehicle: saline): 102 % of control
T/C [4]: 102 % of control

O=C(O)c1ccc(Cn2ccc(=O)[nH]c2=O)cc1
T/C (endpoint: mean survival time, dose: 100.0 mg/kg/injection, schedule: Q01DX001 (ip), vehicle: saline with Tween-80): 95 % of control
T/C (endpoint: mean survival time, dose: 200.0 mg/kg/injection, schedule: Q01DX001 (ip), vehicle: saline with Tween-80): 107 % of control
T/C (endpoint: mean survival time, dose: 400.0 mg/kg/injection, schedule: Q01DX001 (ip), vehicle: saline with Tween-80): 101 % of control

CC(Br)C(=O)Nc1ccccc1 (centres undefined)
T/C [8]: 93 % of control
T/C (endpoint: mean survival time, dose: 100.0 mg/kg/injection, schedule: Q04DX003 (ip), vehicle: saline with Tween-80): 101 % of control
T/C [9]: 103 % of control
T/C (endpoint: mean survival time, dose: 200.0 mg/kg/injection, schedule: Q04DX003 (ip), vehicle: saline with Tween-80): 95 % of control
T/C (endpoint: mean survival time, dose: 400.0 mg/kg/injection, schedule: Q01DX009 (ip), vehicle: saline with Tween-80): 90 % of control
T/C (endpoint: mean survival time, dose: 400.0 mg/kg/injection, schedule: Q04DX003 (ip), vehicle: saline with Tween-80): 95 % of control

O=C1C(c2ccccc2)=C(c2ccccc2)C(c2ccccc2)C1c1ccccc1 (centres undefined)
T/C (endpoint: mean survival time, dose: 100.0 mg/kg/injection, schedule: Q04DX002 (ip), vehicle: gum acacia): 100 % of control
T/C (endpoint: mean survival time, dose: 200.0 mg/kg/injection, schedule: Q04DX002 (ip), vehicle: gum acacia): 87 % of control
T/C (endpoint: mean survival time, dose: 400.0 mg/kg/injection, schedule: Q04DX002 (ip), vehicle: gum acacia): 90 % of control

C=CCNc1ccc(OC)cc1
T/C [7]: 88 % of control
T/C [8]: 96 % of control
T/C [9]: 98 % of control
